{"source": "patent US6723897B2", "about": "“Methods for controlling gibberellin levels” (Monsanto Technology, LLC, priority 1998, dated 2004)", "key": {"[1]": {"test_system": "wild-type soybean line A3237", "test": "Experiment II second greenhouse test, seed imbibition, wild-type soybean", "type": "in vivo, Glycine max", "conditions": "0.125 mg/ml; seeds imbibed 6 hours", "method_in_brief": "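Twenty seeds per treatment were imbibed 6 hours in test solutions, with dry, 1% ethanol and water-imbibed controls. Seeds were then planted and grown three weeks in the greenhouse with sub-irrigation, under 16 h light/8 h dark at 300-400 μmol m^−2 s^−1. Scoring covered dwarf, intermediate and tall plant counts, plant height, uniformity of rescue and visual effects.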"}, "[2]": {"test_system": "transgenic line 719 soybean", "test": "Field trial of seed coatings under soil compaction / different soils, GA-deficient soybean", "type": "in vivo, Glycine max", "conditions": "for Count (emergence) / Dwarfs (number of dwarfs not rescued) / Dwarfs (number not rescued): Line 719"}, "[3]": {"test_system": "non-transgenic soybean line A4922", "test": "Field trial of seed coatings under soil compaction / different soils, wild-type soybean", "type": "in vivo, Glycine max", "conditions": "for Count (emergence) / Height (total plant height): A4922", "experimental": "The second trial (data reported in Tables 22-24) tested the precursors under conditions of soil compaction.\nAs noted above, the second trial tested the noted precursors under conditions of soil compaction. These experiments are performed in the same manner as in the first trial, except that the soil is compacted with an all-terrain vehicle.\n“Height” equals total plant height in cm."}, "[4]": {"test_system": "AX5/antisense CPScc soybean line 234 (R3)", "test": "Hilum seed treatment of epicotyl-intensive GA-deficient soybean, height (FIG. 43)", "type": "in vivo, Glycine max", "conditions": "10 DAP", "quoted_text": "The purpose of this study is to evaluate the ability of four GA compounds, i.e., GA9, GA5, GA3-3-acetate, and GA12, to restore normal growth in AX5/antisense CPScc soybean lines when applied as a seed treatment.\nLine 46 plants are R2; Line 234 plants are R3.\nThe GA compounds are dissolved in ethanol and applied to the hilum of dry seeds as not more than 10 μl droplets with a syringe. If multiple applications are made to seeds, the previous application is allowed to dry before a subsequent application is made.\nSeeds are sown 1 inch deep in commercial potting soil (Metromix 200) in 4-inch plastic pots and placed in a greenhouse set for 12 hours artificial light and a temperature regime of 85° F. (29° C.) day and 75° F. night (24° C.). Pots are watered as necessary by overhead hand watering. Hypocotyl and epicotyl measurements are made for each plant at various stages of plant growth.\nThe lower dashed horizontal line represents the total height of untreated AX5 line 234 soybeans. The upper dashed horizontal line represents the total height of untreated wild-type A4922 soybeans. Measurements are made 10 days after planting."}, "[5]": {"test": "Distribution of 14C label in soybean plant parts after seed treatment", "experimental": "^14C-radiolabelled compounds are obtained from Lew Mander (Australian National University). ^14C-GA3 is dissolved in water:ethanol, 80:20, v/v; ^14C-GA9 and ^14C-GA12 are dissolved in 100% ethanol. Seeds of Asgrow 3237 soybeans are treated separately with solutions of each of the ^14C-radiolabelled compounds (1.7-6.8 μg; 10-40 ppm; 111,000-2,000,000 dpm/seed) by placing one to four μl of the dosing solution directly on the seed coat (^14C-GA3, GA9, and GA12), or on the hilum portion of the seed (^14C-GA3). After evaporation of the carrier solvent (approx. one hour), the treated seed is planted in containers containing approximately 30 gm of Metromix-350, and transferred to a growth chamber. Plants are grown under a 12 hour light/12 hour dark regime at 92° F. (33° C.)and 75% humidity. The pattern of uptake and translocation of ^14C-radioactivity in treated seed is monitored up to 12 days past initial treatment. For most experiments, three replicate plants are harvested at one hour after treatment, one day after treatment (DAT), two DAT, three DAT, six or seven DAT, and 12 DAT. At the time of each harvest, plants are divided into leaves, epicotyl, cotyledon, hypocotyl, and roots. The level of ^14C-radioactivity in different plant parts is determined by extraction of plant tissues with aqueous methanol and scintillation counting. The extent of metabolism of the ^14C-labelled GA compounds in planta is determined by HPLC analysis of plant extracts. The details are as follows.\nThe general extraction procedure consisted of blending the plant parts in a high speed polytron tissue homogenizer for 1-5 minutes with 10-20 ml of ice-cold methanol:water, 80:20, v/v, followed by vacuum filtration through a Whatman glass fiber filter. The filter cake is re-extracted as necessary using the procedure described above until an insignificant amount of radioactivity is removed. Prior to combining the extracts from each sample, aliquots are weighed and analyzed by liquid scintillation counting (LSC) to determine the amount of extracted radioactivity in each extract. Aliquots of the air-dried filter cakes are combusted and analyzed by LSC in order to determine the amount of non-extracted radioactivity. The extracts are combined and, when necessary, concentrated by rotary evaporation at a bath temperature of less than 35° C. to a small volume for analysis by HPLC to determine the extent of metabolism of the ^14C-labelled GA compounds in planta."}, "[6]": {"conditions": "Heavy soil - loose, target rate 2.0 μg/seed, Table 22"}, "[7]": {"conditions": "Heavy soil - loose, target rate 8.0 μg/seed, Table 22"}, "[8]": {"conditions": "Light soil - Compacted, target rate 2.0 μg/seed, Table 22"}, "[9]": {"conditions": "Light soil - Compacted, target rate 8.0 μg/seed, Table 22"}, "[10]": {"conditions": "Light soil - Loose, target rate 2.0 μg/seed, Table 24"}, "[11]": {"conditions": "Light soil - Loose, target rate 8.0 μg/seed, Table 24"}, "[12]": {"conditions": "Light soil - Loose, target rate 16.0 μg/seed, Table 24"}, "[13]": {"conditions": "Light soil - compacted, target rate 2.0 μg/seed, Table 24"}, "[14]": {"conditions": "Light soil - compacted, target rate 8.0 μg/seed, Table 24"}, "[15]": {"conditions": "Light soil - compacted, target rate 16.0 μg/seed, Table 24"}}}
{"smiles": "C=C1C[C@]23C[C@H]1CC[C@H]2[C@@]12CCC[C@@](C)(C(=O)O1)[C@H]2[C@@H]3C(=O)O", "note": "[GA9]", "values": [{"measurement": "Significant Visual Observations on Line A3237", "setting": "[1]", "value": "Normal height"}, {"measurement": "% Emergence, Heavy Soil-Loose", "setting": "[2]; 3.1 μg/seed", "value": 103, "unit": "%"}, {"measurement": "% Emergence, Light Soil-Compact", "setting": "[2]; 3.1 μg/seed", "value": 103, "unit": "%"}, {"measurement": "% Rescue, Heavy Soil-Loose", "setting": "[2]; 3.1 μg/seed", "value": 80, "unit": "%"}, {"measurement": "% Rescue, Light Soil-Compact", "setting": "[2]; 3.1 μg/seed", "value": 91, "unit": "%"}, {"measurement": "% Emergence, Heavy Soil-Loose", "setting": "[2]; 4.9 μg/seed", "value": 91, "unit": "%"}, {"measurement": "% Emergence, Light Soil-Compact", "setting": "[2]; 4.9 μg/seed", "value": 73, "unit": "%"}, {"measurement": "% Rescue, Heavy Soil-Loose", "setting": "[2]; 4.9 μg/seed", "value": 93, "unit": "%"}, {"measurement": "% Rescue, Light Soil-Compact", "setting": "[2]; 4.9 μg/seed", "value": 100, "unit": "%"}, {"measurement": "Count (emergence)", "setting": "[2]; [6]", "value": 42, "unit": "a"}, {"measurement": "Dwarfs (number of dwarfs not rescued)", "setting": "[2]; [6]", "value": 2.0, "unit": "cde"}, {"measurement": "Count (emergence)", "setting": "[2]; [7]", "value": 35, "unit": "abc"}, {"measurement": "Dwarfs (number of dwarfs not rescued)", "setting": "[2]; [7]", "value": 0.7, "unit": "cde"}, {"measurement": "Count (emergence)", "setting": "[2]; [8]", "value": 38, "unit": "abc"}, {"measurement": "Dwarfs (number of dwarfs not rescued)", "setting": "[2]; [8]", "value": 0.7, "unit": "cd"}, {"measurement": "Count (emergence)", "setting": "[2]; [9]", "value": 27, "unit": "b-f"}, {"measurement": "Dwarfs (number of dwarfs not rescued)", "setting": "[2]; [9]", "value": 0, "unit": "days"}, {"measurement": "Count (emergence)", "setting": "[2]; [10]", "value": 48.0, "unit": "a"}, {"measurement": "Dwarfs (number not rescued)", "setting": "[2]; [10]", "value": 2.3, "unit": "e"}, {"measurement": "Count (emergence)", "setting": "[2]; [11]", "value": 49.0, "unit": "a"}, {"measurement": "Dwarfs (number not rescued)", "setting": "[2]; [11]", "value": 0, "unit": "e"}, {"measurement": "Count (emergence)", "setting": "[2]; [12]", "value": 45.0, "unit": "ab"}, {"measurement": "Dwarfs (number not rescued)", "setting": "[2]; [12]", "value": 0, "unit": "e"}, {"measurement": "Count (emergence)", "setting": "[2]; [13]", "value": 38.3, "unit": "abc"}, {"measurement": "Dwarfs (number not rescued)", "setting": "[2]; [13]", "value": 0.7, "unit": "cd"}, {"measurement": "Count (emergence)", "setting": "[2]; [14]", "value": 27.3, "unit": "b-f"}, {"measurement": "Dwarfs (number not rescued)", "setting": "[2]; [14]", "value": 0}, {"measurement": "Count (emergence)", "setting": "[2]; [15]", "value": 29.7, "unit": "a-f"}, {"measurement": "Dwarfs (number not rescued)", "setting": "[2]; [15]", "value": 0}, {"measurement": "rank of potential for rescuing GA-deficient dwarf soybeans without decreasing emergence", "setting": "[2]; based on the last two field trials", "value": "GA9>GA5>GA3-3-acetate>GA3>GA12"}, {"measurement": "best to least selectivity order", "setting": "[2]; emergence under soil compaction, margin of selectivity, rescue without overelongation, Table 22", "value": "GA9>GA5>GA3-3-acetate>GA3"}, {"measurement": "Count (emergence)", "setting": "[3]; [6]", "value": 33, "unit": "ab"}, {"measurement": "Height (total plant height)", "setting": "[3]; [6]", "value": 5.3, "unit": "g·cm·days"}, {"measurement": "Count (emergence)", "setting": "[3]; [7]", "value": 29, "unit": "a-d"}, {"measurement": "Height (total plant height)", "setting": "[3]; [7]", "value": 6.3, "unit": "cde cm"}, {"measurement": "Count (emergence)", "setting": "[3]; [8]", "value": 38, "unit": "abc"}, {"measurement": "Height (total plant height)", "setting": "[3]; [8]", "value": 5.7, "unit": "def cm"}, {"measurement": "Count (emergence)", "setting": "[3]; [9]", "value": 22, "unit": "de"}, {"measurement": "Height (total plant height)", "setting": "[3]; [9]", "value": 6.0, "unit": "de cm"}, {"measurement": "Count (emergence)", "setting": "[3]; [10]", "value": 41.3, "unit": "abc"}, {"measurement": "Height (total plant height)", "setting": "[3]; [10]", "value": 5.0, "unit": "gh cm"}, {"measurement": "Count (emergence)", "setting": "[3]; [11]", "value": 39.3, "unit": "bc"}, {"measurement": "Height (total plant height)", "setting": "[3]; [11]", "value": 7.0, "unit": "ef cm"}, {"measurement": "Count (emergence)", "setting": "[3]; [12]", "value": 39.0, "unit": "bc"}, {"measurement": "Height (total plant height)", "setting": "[3]; [12]", "value": 8.0, "unit": "de cm"}, {"measurement": "Count (emergence)", "setting": "[3]; [13]", "value": 38.0, "unit": "abc"}, {"measurement": "Height (total plant height)", "setting": "[3]; [13]", "value": 5.7, "unit": "def cm"}, {"measurement": "Count (emergence)", "setting": "[3]; [14]", "value": 21.7, "unit": "de"}, {"measurement": "Height (total plant height)", "setting": "[3]; [14]", "value": 6.0, "unit": "de cm"}, {"measurement": "Count (emergence)", "setting": "[3]; [15]", "value": 20.0, "unit": "de"}, {"measurement": "Height (total plant height)", "setting": "[3]; [15]", "value": 8.3, "unit": "c cm"}, {"measurement": "emergence at approximately equivalent biological response (height)", "setting": "[3]; compacted soil, FIG. 40", "value": 93, "unit": "%"}, {"measurement": "plant height dose/response in wild-type line A4922 (FIG. 40)", "setting": "[3]; ten days after planting, compacted soil", "value": "less active than GA3, GA3-3-acetate, and GA5"}, {"measurement": "activity relative to GA3, GA3-3-acetate and GA5", "setting": "[4]", "value": "approximately 10 times less active"}, {"measurement": "restoration of height of line 234 soybeans", "setting": "[4]; hypocotyl and epicotyl elongation, hypocotyl to epicotyl ratio not maintained", "value": "restore normal height to line 234 soybeans"}, {"measurement": "^14C Label Distribution (% of dose), Cotyledon", "setting": "[5]; 3 DAP", "value": "60 % of dose"}, {"measurement": "^14C Label Distribution (% of dose), Hypocotyl", "setting": "[5]; 3 DAP", "value": "6.8 % of dose"}, {"measurement": "^14C Label Distribution (% of dose), Root", "setting": "[5]; 3 DAP", "value": "1.3 % of dose"}, {"measurement": "^14C Label Distribution (% of dose), Cotyledon", "setting": "[5]; 12 DAP", "value": "54 % of dose"}, {"measurement": "^14C Label Distribution (% of dose), Epicotyl", "setting": "[5]; 12 DAP", "value": "0.1 % of dose"}, {"measurement": "^14C Label Distribution (% of dose), Hypocotyl", "setting": "[5]; 12 DAP", "value": "1.0 % of dose"}, {"measurement": "^14C Label Distribution (% of dose), Leaves", "setting": "[5]; 12 DAP", "value": "0.3 % of dose"}, {"measurement": "^14C Label Distribution (% of dose), Root", "setting": "[5]; 12 DAP", "value": "1.0 % of dose"}]}
